Data on four molecules can be found in patent US20080008745A1, “Transdermal delivery of naltrexone hydrochloride, naltrexol hydrochloride, and bis(hydroxy-methyl)propionyl-3-0 ester naltrexone using microneedles” (UNIVERSITY OF KENTUCKY RESEARCH FOUNDATION, priority 2006, published 2008).

SMILES strings stand for the structures. Converted amounts (≈) assume the structure as drawn.

Series [1] is described as follows: In vitro skin diffusion study, flow-through diffusion cell, guinea pig skin. The procedure: Hairless guinea pig skin was harvested from euthanitized animals. Animal studies were approved by the University of Kentucky IACUC. Human skin harvested during abdominoplasty was used for the diffusion studies. Human tissue use was approved by the University of Kentucky Institutional Review Board. Skin sections were obtained by removing the subcutaneous fatty tissue by scalpel dissection and stored at −20° C. A PermeGear flow-through (In-Line, Riegelsville, Pa.) diffusion cell system was used for the skin permeation studies. Skin used for microneedle treatment was placed on a wafer of polydimethylsiloxane polymer, which mimicked the underlying resistance of tissue. The skin was poked 20 times with an array containing 5 MN before mounting the skin in the diffusion cell. Untreated skin samples were simply placed in the diffusion cells. Diffusion cells were kept at 32° C. with a circulating water bath. Data was collected by using skin from a single donor with three cells for untreated formulations and three to four cells for the MN treated formulations. The receiver solution was HEPES-buffered Hanks' balanced salts with gentamicin at pH 7.4, and the flow rate was adjusted to 1.1 mL/h. Each cell was charged with 0.25 mL of the respective drug solution. […] All samples were stored at 4° C. until processed by solid phase extraction.
The cumulative quantity of drug collected in the receiver compartment was plotted as a function of time. The flux value for a given experiment was obtained from the slope of the steady state portion of the cumulative amount of drug permeated, plotted over time. Apparent permeability coefficient values were calculated from Fick's First Law of diffusion: [formula]
Sink conditions were maintained in the receiver solution for the duration of the experiment, so ΔC was approximated by the drug concentration in the donor compartment.
The HPLC analysis was performed as described by Vaddi et al., Pharm. Res. 22 (2005) 758-765. The HPLC system consisted of a Waters 717plus autosampler, a Waters 1525 Binary HPLC pump, and a Waters 2487 Dual λ Absorbance detector with Waters Breeze software. A Brownlee C-18 reversed-phase Spheri-5 μm column (220×4.6 mm) with a C-18 reversed phase 7 μm guard column (15×3.2 mm) was used with the UV detector set at a wavelength of 215 nm. […] The mobile phase for Naltrexol consisted of 90:10 ACN:0.1% TFA adjusted to pH 3.0 with TEA. Samples were run for 10 min at 1 mL/min as described by Paudel et al., J. Pharm. Sci. 94 (2005) 1965-1975). One hundred microliters of sample was injected onto the column for both Naltrexone and Naltrexol. Samples were analyzed within the linear range of the standard curves.
The drugs were extracted from the buffer samples by solid phase extraction (30mg 1 cc Oasis® HLB, Waters Corp., Milford, Mass.) as described by Vaddi et al., Pharm. Res. 22 (2005) 758-765.
Before extracting the aqueous drug samples (5 mL), the cartridge was conditioned with 1 mL of methanol and 1 mL of nanopure water. After sample loading, the cartridge was washed with 1 mL of 5% methanol and the drug was eluted with ACN and analyzed by HPLC. A similar extraction method was employed for Naltrexol, except 2 mL of methanol was used in conditioning and 1 mL of nanopure water was also used to further wash the samples after being loaded onto the cartridge. The Naltrexol was eluted with 2 mL of isopropanol and finally with 1 mL ACN. Naltrexol samples were evaporated under nitrogen in a water bath maintained at 37° C. The samples were then reconstituted with 1 mL of ACN for HPLC analysis. Highly concentrated samples of Naltrexone and Naltrexol were further diluted 10 times in ACN.
The data obtained from the diffusion experiments were plotted as the cumulative amount of drug collected in the receiver compartment as a function of time.

Series [2] is described as follows: Solubility or concentration of Naltrexol base in 3:1 H2O:PG after pH adjustment. The series is classed as physicochemical. The conditions noted are these: for Solubility in 3:1 H2O:PG: pH adjusted; for Concentration in 3:1 H2O:PG: concentration of drug in solution, freely soluble in the ionized form. The procedure:
100 mg of Naltrexol base was prepared in 3:1 H2O:PG. The solution was briefly vortexed and sonicated for 10 min. To obtain a mixture of pH 8.5 Naltrexol base, 0.5 N sodium hydroxide was added incrementally. The same procedure was performed to obtain a pH 4.5 solution, except 0.5 M HCl was added dropwise. […] The solution was saturated with excess solid when the pH was raised above the first pKa (7.4) of Naltrexol base.

Series [3] is described as follows: In vivo pharmacokinetics in hairless guinea pigs, gel with or without microneedles. The arrangement: species or system hairless guinea pig. The procedure: In vivo studies of hairless guinea pigs were performed in order to obtain pharmacokinetic parameters for guinea pigs treated with 26 mg Naltrexol base gel, MN application followed by 26 mg Naltrexol base gel, 285 mg Naltrexol HCl gel and MN application followed by 285 mg Naltrexol HCl. The base was saturated in gel whereas the hydrochloride salt remained soluble in solution.

[4] abbreviates: MN Treated GP skin, 100 mg/ml Naltrexone base equivalent in 3:1 PG:water, 48 hours.
The mark [5] stands for this setting: GP skin, No MN, High Dose, 3:1 H2O:PG.
[6] abbreviates: GP skin, MN Treated, High Dose, listed as Naltrexol pH 4.5.
Where [7] appears, read: MN application followed by gel (26 mg base or 285 mg HCl).
Where [8] appears, read: no MN, gel (26 mg Naltrexol base or 285 mg Naltrexol HCl).

With `CC(CO)(CO)C(=O)Oc1ccc2c3c1OC1C(=O)CCC4(O)C(C2)N(CC2CC2)CCC314` (centres unmarked) [NTX-Diol ester, bis(hydroxymethyl)propionyl-3-O-ester naltrexone], in series [1] (setting [4]), the Flux came out at 71.98 ± 26.38 nmol/cm^2/h and the Lag time amounted to 10.33 ± 7.95 h. Further, the “Flux level relative to Naltrexone HCl with MN treatment” value in series [1] (MN treated GP skin) is “approximately twice”.

For `Oc1ccc2c3c1O[C@H]1[C@H](O)CC[C@@]4(O)[C@@H](C2)N(CC2CC2)CC[C@]314` [NTXOL Base pH 8.5, 6-β-Naltrexol], the entries for the “Solubility in 3:1 H2O:PG” value in series [2] and in series [2] (listed as Naltrexol base at pH 8.5) were 2.69 mM (≈ 924 µg/mL) and 2.92 mM (≈ 1000 µg/mL), respectively. The Lag time came out at 17.53 ± 6.56 h in series [1] (GP skin, MN Treated, High Dose); 15.67 ± 6.96 h in series [1] (GP skin, MN Treated, Low Dose); 24.34 ± 5.17 h in series [1] (GP skin, No MN, High Dose); 24.34 ± 5.17 h in series [1] (GP skin, No MN, High Dose, listed as Naltrexol pH 8.5); 25.37 ± 1.10 h in series [1] (GP skin, No MN, Low Dose). The “NTXOL Flux” value in series [1] (GP skin, MN Treated, High Dose) came out at 4.79 ± 2.62 nmol/cm^2/h; in series [1] (GP skin, MN Treated, Low Dose) it was 15.19 ± 7.33 nmol/cm^2/h; in series [1] (setting [5]) it was 1.36 ± 0.91 nmol/cm^2/h; in series [1] (GP skin, No MN, Low Dose) it was 8.77 ± 4.08 nmol/cm^2/h.

For the molecule `Oc1ccc2c3c1O[C@H]1[C@H](O)CC[C@@]4(O)[C@@H](C2)N(CC2CC2)CC[C@]314` [NTXOL Base pH 4.5, 6-β-Naltrexol], the entries for the “Concentration in 3:1 H2O:PG” value in series [2] (High Dose) and in series [2] (Low Dose) were “**292.40 mM” and “**76.02 mM”, respectively. For the same molecule, the Lag time in series [1] (GP skin, MN Treated, High Dose) was 6.58 ± 5.02 h; in series [1] (setting [6]), 6.58 ± 5.02 h; in series [1] (GP skin, MN Treated, Low Dose), 10.33 ± 7.95 h; in series [1] (GP skin, No MN, High Dose), 25.97 ± 5.50 h; in series [1] (GP skin, No MN, High Dose, listed as Naltrexol pH 4.5) it was 25.97 ± 5.50 h; in series [1] (GP skin, No MN, Low Dose), 27.18 ± 1.31 h. Also, the “NTXOL Flux” value in series [1] (GP skin, MN Treated, High Dose) is given as 35.07 ± 8.18 nmol/cm^2/h; in series [1] (setting [6]), 35.07±8.18 nmol/cm^2/h; in series [1] (GP skin, MN Treated, Low Dose), 71.98 ± 26.38 nmol/cm^2/h; in series [1] (setting [5]), 6.56 ± 6.49 nmol/cm^2/h; in series [1] (GP skin, No MN, Low Dose), 11.50 ± 4.20 nmol/cm^2/h. Also, in series [1] (MN treated GP skin), the “Flux enhancement relative to Naltrexone HCl” value worked out at 1.3 fold.

Regarding `Cl.Oc1ccc2c3c1O[C@H]1[C@H](O)CC[C@@]4(O)[C@@H](C2)N(CC2CC2)CC[C@]314` [NTXOL HCl, Naltrexol Hydrochloride], the “Plasma concentrations compared to no microneedles and Naltrexol base” value in series [3] (MN and gel therapy, FIG. 8) is reported as “markedly higher”. In series [3] (setting [7]), the AUC is 1349 ± 616 ng·h/mL, the Cmax is recorded as 48.5 ± 18.8 ng/mL, the Css worked out at 21.3 ± 6.9 ng/mL and the Tlag was determined as 0.7 ± 0.3 h. For the same molecule, the Tmax in series [3] (setting [7]) is 19.2 ± 11.5 h. Also, in series [3] (setting [8]), the AUC is 24.4 ng·h/mL, the Cmax turned out to be 4.1 ng/mL, the Css was found to be 1.8 ± 1.68 ng/mL and the Tlag is recorded as 1 h. The Tmax in series [3] (setting [8]) is on record as 7.0 h. Further, the Flux in series [1] (MN treated skin, earlier experiment) was 36.12±1.77 nmol/cm^2/h. Further, the Flux in series [1] (untreated skin, earlier experiment) was found to be 2.75±1.38 nmol/cm^2/h.
